Read-outs that look alike come from different tables or passages of the source.
Experiments:
cattle [1] = assay: Oral administration (gavage) to cattle: serum NEFA and SUN levels; type: in vivo, cattle (Angus/Angus cross steer calves); details: 1 mg per kilogram body weight oral gavage, mean of five animals; for change in vivo at 1 mg/kg: Bos taurus
Protocol: In the present example, fifteen head of Angus/Angus cross steer calves, weighing approximately 484 pounds (220 kg) initially to 604 pounds (274 kg) by the end of these three trials, were placed in pens in the cattle facilities, at 5 calves per pen. Standard vaccination and coccidal control were administered.
Calves were fed ad libitum twice daily, approximately 10-15 pounds (4.54-6.81 kg)/day. The feeding times were staggered once treatment was initiatedto ensure that all calves were fed approximately one hour before the treatments were administered and blood samples were obtained. During the A.M. treatment period, the cattle were prevented from returning to feed until the +180 minute blood sample had been collected.
Treatments were administered once a day via oral gavage. The treatments contained 1 mg of test compound per kilogram body weight and were administered in a 50/50 PEG 200/water vehicle, followed with a flush of 20 mls of 50/50 PEG 200/water.
A baseline blood sample (T=0) was taken immediately before the oral gavage treatment was administered. At 90 minutes post-treatment (T+90 min) another blood sample was taken. The cattle were returned to their designated pens until 180 minutes post-treatment (T+180 min), when a third blood sample was collected. The calves were not allowed access to their feed until they had completed the 180 minute blood sample. Additional blood samples were collected from each calf at 24 and 48 hours post treatment.
All blood samples were taken from the jugular vein and placed into serum tubes. Serum was assayed on an IL Monarch analyzer. Blood samples were collected pretreatment (T=0), 90 minutes post-treatment (T+90 min), 180 minutes post-treatment (T+180 min) and 24 hours post-treatment (T+24 h) and 48 hours post-treatment (T+48 h). Sera at T=0, T+90 min, T+180 min, T+24 h, and T+48 h were analyzed for NEFA and SUN.

chickens = assay: Anabolic effects when administered in feed to chickens; type: in vivo, chicken (Peterson-Hubbard male chicks)
Source text: Approximately 1500 Peterson-Hubbard day-old male chicks were used in a randomized, complete block design with 6 treatments (Control; Clenbuterol at 1 PPM; Compound 1 at 3 and 15 PPM (mg/kg feed); and Compound 5 at 3 and 15 PPM) using pen location in the barn as the blocking factor. Treatments were randomly allotted to pens within each block for a total of 6 pens per block and 6 blocks in the wing. Each treatment consisted of 6 pens, with 10 birds per pen, during the experimental period.
Day-of-age birds were obtained from Pine Manor Hatchery in Goshen, Ind. Approximately 40 birds per pen were setup at random upon receipt. On day 30 of the growout period, all birds were weighed and the 15 birds closest to the block mean were selected. These birds were allowed to acclimate until day 35 of age. On this day, all remaining birds were weighed again, and the 10 birds/pen closest to the block mean were chosen for the treatment phase. Birds were provided ad libitum access to feed and water throughout the trial. All birds were fed a 23% crude protein corn-soy ration from day 1 until day 18 of age. The feed was changed to a 20% crude protein corn-soy ration for day 18 to day 49. The treatment feed was mixed using the 20% crude protein corn-soy basal ration. Treatments were administered in the feed from day 35 through day 49. Feed consumption was calculated over the entire 14 day treatment period. Birds were weighed at trial completion (day 49), and transported to Purdue University meat laboratory for slaughter and carcass measurements on day 50. Weights of the hot carcass, fat pad, and viscera were taken on all animals. Weights of the bone-in, skin-on breast, and the bone-in, skin-on leg quarters were taken only on the control treatment and the high doses of both experimental compounds.

cattle [2] = assay: Intravenous administration to cattle: serum NEFA and SUN levels; type: in vivo, cattle (Angus/Angus cross calves); details: mean of five animals; for Δ % SUN 24 Hours (percent decrease in serum urea nitrogen compared with baseline T=0) / ΔNEFA 24 Hours (increase in NEFA in blood compared with baseline T=0): 40 μg per kilogram intravenously at 6:30 A.M. and 2:30 P.M., 24 hours post treatment; for ΔNEFA 15 Min. (increase in NEFA in blood compared with baseline T=0): 40 μg per kilogram intravenously, 15 minutes post treatment
Source text: Angus/Angus cross steer calves, both heifers and steers, weighing approximately 282 pounds (128 kg) initially to 788 pounds (358 kg) over the course of these studies, were placed in pens at 5 calves per pen. The cattle were acclimated to the pens for at least 1 week prior to initiating the study.
Calves were fed ad libitum twice daily, (approximately 6-15 pounds (2.7-6.8 kg)/day). During the treatment day, in the A.M. period, the feeding times were staggered to ensure that all animals were fed approximately one hour before the treatments were administered. During the P.M. treatment period, the cattle were fed immediately after receiving the P.M. injection.
After taking a pretreatment (T=0) blood sample from each animal, 40 μg per kilogram of a test compound was administered intravenously in the jugular vein at 6:30 A.M. and 2:30 P.M. Each test compound was administered at a concentration of 1.00-1.25 mg/ml in a treatment vehicle that was a 50/50 mixture of polyethylene glycol 200/water.
A blood sample was taken at fifteen minutes post-treatment (T+15 min). The calves were returned to their respective pens until their next treatment, approximately eight hours later. The next morning at 6:30 A.M. a blood sample was collected from all calves at 24 hours post-treatment (T+24h). All blood samples were analyzed for the non-esterified fatty acid level (NEFA) and serum urea nitrogen level (SUN). The post-treatment NEFA and SUN levels in each individual animal were compared with the levels found before treatment.

[3] = 24 hours post treatment, read-out: Δ % SUN 24 Hours (percent decrease in serum urea nitrogen compared with baseline T=0)
[4] = 48 hours post treatment, read-out: Δ % SUN 48 Hours (percent decrease in serum urea nitrogen compared with baseline T=0)
[5] = 1 PPM in feed, 14 day treatment period
[6] = 3 PPM in feed, 14 day treatment period
[7] = 3 PPM in feed, 14 day treatment period (day 35 to 49)
[8] = 15 PPM in feed, 14 day treatment period
[9] = 15 PPM in feed, 14 day treatment period (day 35 to 49)

Compound | ΔNEFA 24 Hours (increase in NEFA in blood compared with baseline T=0) (cattle [1]; 24 hours post treatment) | change in vivo at 1 mg/kg (cattle [1]; [3]) | change in vivo at 1 mg/kg (cattle [1]; [4]) | improvement in feed conversion versus control (chickens; [5]) | increase in weight gain over control (chickens; [5]) | Δ % SUN 24 Hours (percent decrease in serum urea nitrogen compared with baseline T=0) (cattle [2]) | ΔNEFA 24 Hours (increase in NEFA in blood compared with baseline T=0) (cattle [2]) | ΔNEFA 15 Min. (increase in NEFA in blood compared with baseline T=0) (cattle [2]) | improvement of feed efficiency (chickens; [6]) | increase in weight gain over control (chickens; [7]) | improvement of feed efficiency (chickens; [8]) | increase in weight gain over control (chickens; [9])
CC(C)(Cc1ccc(Oc2ccc(C(N)=O)cc2)cc1)NC[C@H](O)COc1cccc2[nH]c(=S)[nH]c12 | 17 µmol/L | -8% | -12% | – | – | – | – | – | – | – | – | –
CC(C)(Cc1ccc(Oc2ncccc2C(N)=O)cc1)NC[C@H](O)COc1cccc2[nH]ccc12 | -30 µmol/L | -42% | -30% | – | – | – | – | – | – | – | – | –
CC(C)(Cc1ccc(Oc2ncccc2C(N)=O)cc1)NC[C@H](O)COc1cccc2[nH]c(=S)[nH]c12 | 101 µmol/L | -17% | -13% | – | – | – | – | – | – | – | – | –
CC(C)(Cc1ccc(Oc2ncccc2C(N)=O)cc1)NC[C@H](O)COc1cccc2[nH]c(=O)[nH]c12 | 10 µmol/L | -22% | -19% | – | – | – | – | – | – | – | – | –
CC(C)(Cc1ccc(Oc2ccc(C#N)cn2)cc1)NC[C@H](O)COc1cccc2[nH]ccc12 | 63 µmol/L | -55% | -40% | – | – | – | – | – | – | – | – | –
CC(C)(Cc1ccc(Oc2ccc(C#N)cn2)cc1)NC[C@H](O)COc1cccc2[nH]c(=O)[nH]c12 | 18 µmol/L | 2% | 5% | – | – | – | – | – | – | – | – | –
CC(C)(Cc1ccc(Oc2ccc(C(=O)N3CCOCC3)cn2)cc1)NC[C@H](O)COc1cccc2[nH]ccc12 | -47 µmol/L | -45% | -28% | – | – | – | – | – | – | – | – | –
CC(C)(Cc1ccc(Oc2ccc(C(=O)N3CCOCC3)cn2)cc1)NC[C@H](O)COc1cccc2[nH]c(=S)[nH]c12 | 6 µmol/L | -18% | -15% | – | – | – | – | – | – | – | – | –
CC(C)(Cc1ccc(Oc2ccc(S(C)(=O)=O)cc2)cc1)NC[C@H](O)COc1cccc2[nH]c(=S)[nH]c12 | 37 µmol/L | -1% | -5% | – | – | – | – | – | – | – | – | –
CC(C)(Cc1ccc(Oc2ccc(S(C)(=O)=O)cc2)cc1)NC[C@H](O)COc1cccc2[nH]c(=O)[nH]c12 | -6 µmol/L | -10% | -6% | – | – | – | – | – | – | – | – | –
CC(C)(C)NCC(O)c1cc(Cl)c(N)c(Cl)c1 (stereo not shown) [Clenbuterol] | – | – | – | did not show an improvement | 3.54% | – | – | – | – | – | – | –
CC(C)(Cc1ccc(Oc2ccc(C(N)=O)cn2)cc1)NC[C@H](O)COc1cccc2[nH]ncc12 [Compound 1] | 329 µmol/L | -38% | -32% | – | – | −28.7% | 820.9 µmol/L | 554.4 µmol/L | not improved | 3.54% | 4.67% | 11.50%
CC(C)(Cc1ccc(Oc2ccc(C#N)cn2)cc1)NC[C@H](O)COc1cccc2[nH]ncc12 [Compound 3] | 349 µmol/L | -58% | -57% | – | – | −24.7% | 1069.3 µmol/L | 269.4 µmol/L | – | – | – | –
CC(C)(Cc1ccc(Oc2ccc(C(=O)N3CCOCC3)cn2)cc1)NC[C@H](O)COc1cccc2[nH]ncc12 [Compound 4] | 1129 µmol/L | -47% | -48% | – | – | −40.1% | 1251.8 µmol/L | 194.8 µmol/L | – | – | – | –
CC(C)(Cc1ccc(Oc2ccc(S(C)(=O)=O)cc2)cc1)NC[C@H](O)COc1cccc2[nH]ncc12 [Compound 5] | 1216 µmol/L | -33% | -60% | – | – | −25.4% | 1541.9 µmol/L | 397.3 µmol/L | not improved | 2.65% | 3.27% | 8.85%
